Source: paper PMC11487390, “Design and Synthesis of 1,3-Diarylpyrazoles and Investigation of Their Cytotoxicity and Antiparasitic Profile” (International Journal of Molecular Sciences, 2024)
Counter-ions that a name gives are not always drawn. Like-named read-outs stand apart in the source and are kept apart here.

Assays:
[1] = Cytotoxicity assay, MRC-5SV2 cells, resazurin, 3 days; assay type: cell-based; conditions: human, MRC-5SV2 human lung fibroblast cells, MRC-5 cells, highest concentration 64 µM
Protocol: The series of final products (13–69) was investigated in vitro on the human fetal lung fibroblast cell line MRC-5 (Table 1) to assess cytotoxicity toward normal (i.e., non-malignant) human cells. […] As explained earlier, these are important pathogens for humans or cattle (T. b. brucei) and a persistent need for new therapeutics exists for these parasites. As a part of the antiparasitic tests, cytotoxicity against primary mouse macrophages (PMMs) was also evaluated. These murine cells serve as host cells for parasites in the L. infantum assay. Therefore, the murine macrophage assay not only offers additional cytotoxicological insight but is also essential to interpreting the readout of the L. infantum assay.
(§1) The MRC-5SV2 human lung fibroblast cell line was cultured in MEM + Earle’s salts-medium, supplemented with 2 mM L-glutamine, 16.5 mM NaHCO3, and 5% inactivated fetal calf serum. For evaluating the antileishmanial activity, the L. infantum MHOM/MA(BE)/67 strain was used. This strain was maintained in a Golden hamster (Mesocricetus auratus). Amastigotes were collected from the spleen of an infected donor hamster using differential centrifugation. Primary peritoneal mouse macrophages were used as host cells and were collected 2 days after peritoneal stimulation with a 2% potato starch suspension. For the intracellular T. cruzi assays, the Tulahuen CL2 strain was used that expresses β-galactosidase. The strain was maintained in MRC-5SV2 cells in MEM medium. The T. b. brucei Squib 427 strain or T. b. rhodesiense STIB-900 strain was used for screening against the extracellular African trypanosomes. The strains were maintained in Hirumi’s Modified Iscove’s medium-9 (HMI-9), supplemented with 10% inactivated fetal calf serum. All cultures and assays were performed at 37 °C with 5% CO2.
(§2) Compound stock solutions were prepared in 100% DMSO at 20 mM. The compounds were serially pre-diluted by robotic plate production (4-fold) in DMSO followed by a further (intermediate) dilution in demineralized water to assure a final in-test DMSO concentration of <1%. Identical test plates containing 10 µL of the different concentrations of each compound were produced for the different assays. For the cytotoxicity assays, 5 concentrations per compound were tested (64–16–4–1–0.25 µM). For the parasitic assays, 10 concentrations per compound were tested, ranging from 64 µM to 0.2 nM.
Assays were performed in sterile 96-well microtiter plates, each well containing 10 µL of the watery compound dilutions together with 190 µL of MRC-5SV2 inoculum (1.5 × 10^5 cells/mL). Cell growth was compared to untreated control wells (100% cell growth) and medium-control wells (0% cell growth). After 3 days incubation, MRC-5 viability was assessed fluorimetrically after addition of 50 μL resazurin per well (final concentration of 10 µg mL^−1). After 4 h at 37 °C, fluorescence was measured (λex 550 nm, λem 590 nm). The results were expressed as % reduction in cell growth/viability compared to positive (100% growth–0% inhibition) and negative (0% growth–100% inhibition) control wells from which EC50 values (50% effective concentrations) were derived using an excel macro that calculates the interpolation of the concentrations corresponding to the flanking points, just above and just below 50% inhibition.

[2] = system: Trypanosoma cruzi Tulahuen CL2 strain; test: Intracellular T. cruzi assay in MRC-5 cells (β-galactosidase/CPRG, 7 days); assay type: cell-based; conditions: Trypanosoma cruzi, TULAHUEN, MRC5, 168 h, intracellular in MRC-5 cells
Protocol: as §1, §2
MRC-5 cells were infected in 96-well plates using a harvested T. cruzi inoculum (4 × 10^3 MRC-5 cells/well + 4 × 10^4 parasites/well) and exposed to 10 µL of the compound dilutions (200 µL/well total volume). Parasite growth determined after 7 days of incubation and compared to untreated infected controls following the addition of the substrate CPRG (chlorophenolred ß-D-galactopyranoside): 50 µL/well of a stock solution containing 15.2 mg CPRG + 250 µL Nonidet in 100 mL PBS. The absorbance was measured spectrophotometrically at 540 nm after 4 h incubation at 37 °C and EC50 values were calculated.

[3] = system: L. infantum MHOM/MA(BE)/67 strain; test: L. infantum intracellular amastigote assay in PMM (Giemsa, 5 days); assay type: cell-based, Leishmania infantum
Protocol: as §1, §2
Primary peritoneal mouse macrophages (PMMs) were prepared in RPMI-1640 medium, supplemented with 2 mM L-glutamine, 16.5 mM NaHCO3, and 5% inactivated fetal calf serum. The macrophages are infected after 48 h with spleen-derived L. infantum amastigotes (3 × 10^4 PMM + 4.5 × 10^5 parasites/well). The compounds were added after 2 h of infection. After 5 days incubation, parasite burdens (mean number of amastigotes/macrophage) were assessed microscopically after staining with a 10% Giemsa solution and EC50 values were calculated.

[4] = system: T. b. brucei Squib 427 strain; test: T. b. brucei growth assay (resazurin, 3 days); assay type: cell-based, Trypanosoma brucei brucei; conditions: Trypanosoma brucei, 72 h
Protocol: as §1, §2
(§3) Parasite suspensions (1.5 × 10^4 T. b. brucei/well or 4 × 10^3 T. b. rhodesiense/well) in HMI-9 medium were exposed in a total volume of 200 µL to 10 µL of the compound dilutions Parasite growth was assessed fluorimetrically after 3 days of incubation by the addition of 50 µL resazurin per well. After 6 h (T. b. rhodesiense) or 24 h (T. b. brucei) at 37 °C, fluorescence was measured (λex 550 nm, λem 590 nm), from which viability and EC50 values could be determined.

[5] = system: T. b. rhodesiense STIB-900 strain; test: T. b. rhodesiense growth assay (resazurin, 3 days); assay type: cell-based, Trypanosoma brucei rhodesiense; conditions: Trypanosoma brucei, RHODESIENSE, 72 h
Protocol: as §1, §2, §3

[6] = Leishmania infantum, 120 h, read-out: L. inf. (EC50, µM), amastigotes in PMM, 5 days
[7] = read-out: T. b. bruc. (EC50, µM), 3 days
[8] = read-out: T. b. rhod. (EC50, µM), 3 days
[9] = Leishmania infantum, 120 h, amastigotes in PMM, 5 days, read-out: L. inf. (EC50)
[10] = 3 days, read-out: T. b. bruc. (EC50)
[11] = 3 days, read-out: T. b. rhod. (EC50)

In the case of `c1ccc(-n2cc(CNCCc3ccccn3)c(-c3ccc4c(c3)OCO4)n2)cc1` [Compound 59, N-((3-(benzo[d] [1,3]dioxol-5-yl)-1-phenyl-1H-pyrazol-4-yl)methyl)-2-(pyridin-2-yl)ethan-1-amine hydrochloride], the EC50 at 3 days [1] is reported as 26.6 µM, the EC50 [2] is reported as 6.71 µM and the EC50 [3, 6] is reported as 8.06 µM. It also gave an EC50 [4, 7] of 1.64 µM and an EC50 [5, 8] of 1.61 µM.

With `c1ccc(Cn2cc(COCc3cn(-c4ccccc4)nc3-c3ccc4c(c3)OCCO4)nn2)cc1` [Compound 48, 1-benzyl-4-(((3-(2,3-dihydrobenzo[b][1,4]dioxin-6-yl)-1-phenyl-1H-pyrazol-4-yl)methoxy)methyl)-1H-1,2,3-triazole] the EC50 at 3 days [1] was > 64 µM, the EC50 [2] was > 64 µM and the EC50 [3, 9] was 32.5 µM. The EC50 [4, 10] was > 64 µM and the EC50 [5, 11] was 1.78 µM.

In the case of `FCc1cn(-c2ccccc2)nc1-c1ccc2c(c1)OCCO2` [Compound 52, 3-(2,3-dihydrobenzo[b][1,4]dioxin-6-yl)-4-(fluoromethyl)-1-phenyl-1H-pyrazole], the EC50 at 3 days [1] is reported as 22.6 µM, the EC50 [2] is reported as 23.9 µM and the EC50 [3, 9] is reported as > 64 µM. For the same compound, the EC50 [4, 10] was > 64 µM and the EC50 [5, 11] was 27.1 µM.

For `COc1ccc(-c2nn(-c3ccccc3)cc2CN2CCCC2)cc1` [Compound 65, 3-(4-methoxyphenyl)-1-phenyl-4-(pyrrolidin-1-ylmethyl)-1H-pyrazole oxalate], the EC50 at 3 days [1] was 32 µM, the EC50 [2] was 28.9 µM and the EC50 [3, 9] was 33.2 µM. The EC50 [4, 10] was 6.87 µM and the EC50 [5, 11] was 6.43 µM.

For `c1ccc(-n2cc(CNCCN3CCCC3)c(-c3ccc4c(c3)OCCO4)n2)nc1` [Compound 69, N-((3-(2,3-dihydrobenzo[b][1,4]dioxin-6-yl)-1-(pyridin-2-yl)-1H-pyrazol-4-yl)methyl)-2-(pyrrolidin-1-yl)ethan-1-amine dihydrochloride], the EC50 at 3 days [1] was > 64 µM, the EC50 [2] was > 64 µM and the EC50 [3, 6] was > 64 µM. The EC50 [4, 7] was 22.7 µM and the EC50 [5, 8] was 24.8 µM.

In the case of `COc1ccc(-c2nn(-c3ccccc3)cc2COCc2ccc(F)cc2)cc1` [Compound 68, 4-(((4-fluorobenzyl)oxy)methyl)-3-(4-methoxyphenyl)-1-phenyl-1H-pyrazole], the EC50 at 3 days [1] is reported as > 64 µM, the EC50 [2] is reported as 5.33 µM and the EC50 [3, 9] is reported as 36.8 µM. The EC50 [4, 10] was 29.6 µM and the EC50 [5, 11] was 11.4 µM.

For `Clc1ccc(Cc2cn(-c3ccccc3)nc2-c2ccc3c(c2)OCCO3)cc1` [Compound 50, 4-(4-chlorobenzyl)-3-(2,3-dihydrobenzo[b][1,4]dioxin-6-yl)-1-phenyl-1H-pyrazole], the EC50 at 3 days [1] was > 64 µM, the EC50 [2] was 7.53 µM and the EC50 [3, 9] was 12.7 µM. For the same compound, the EC50 [4, 10] was 27.2 µM and the EC50 [5, 11] was 8.52 µM.

In the case of `O=C(NCCc1ccccc1)c1cn(-c2ccccc2)nc1-c1ccc2c(c1)OCCO2` [Compound 34, 3-(2,3-dihydrobenzo[b][1,4]dioxin-6-yl)-N-phenethyl-1-phenyl-1H-pyrazole-4-carboxamide], the EC50 at 3 days [1] is reported as 1.54 µM, the EC50 [2] is reported as > 64 µM and the EC50 [3, 9] is reported as > 64 µM. For the same compound, the EC50 [4, 10] was > 64 µM and the EC50 [5, 11] was 4.74 µM.

With `COc1ccc(-c2nn(-c3ccccc3)cc2CN2CCOCC2)cc1` [Compound 66, 4-((3-(4-methoxyphenyl)-1-phenyl-1H-pyrazol-4-yl)methyl)morpholine hydrochloride] the EC50 at 3 days [1] was > 64 µM, the EC50 [2] was 22.4 µM and the EC50 [3, 6] was 34.6 µM. The EC50 [4, 7] was 27.8 µM and the EC50 [5, 8] was 20.5 µM.

For `FC(F)c1cn(-c2ccccc2)nc1-c1ccc2c(c1)OCCO2` [Compound 53, 4-(difluoromethyl)-3-(2,3-dihydrobenzo[b][1,4]dioxin-6-yl)-1-phenyl-1H-pyrazole], the EC50 at 3 days [1] was 21.8 µM, the EC50 [2] was 6.44 µM and the EC50 [3, 9] was 32.5 µM. It also gave an EC50 [4, 10] of 30.3 µM and an EC50 [5, 11] of 19 µM.

For `COc1ccc(-c2nn(-c3ccccc3)cc2CNCCc2ccccn2)cc1` [Compound 64, N-((3-(4-methoxyphenyl)-1-phenyl-1H-pyrazol-4-yl)methyl)-2-(pyridin-2-yl)ethan-1-amine hydrochloride], the EC50 at 3 days [1] was 28.9 µM, the EC50 [2] was 7.15 µM and the EC50 [3, 6] was 8.06 µM. It also gave an EC50 [4, 7] of 1.7 µM and an EC50 [5, 8] of 1.57 µM.

In the case of `Fc1ccc(COCc2cn(-c3ccccc3)nc2-c2ccc3c(c2)OCCO3)cc1` [Compound 45, 3-(2,3-dihydrobenzo[b][1,4]dioxin-6-yl)-4-(((4-fluorobenzyl)oxy)methyl)-1-phenyl-1H-pyrazole], the EC50 at 3 days [1] is reported as > 64 µM, the EC50 [2] is reported as 5.51 µM and the EC50 [3, 9] is reported as 22.6 µM. For the same compound, the EC50 [4, 10] was 27.2 µM and the EC50 [5, 11] was 7.16 µM.

For `O=C(NCc1cn(-c2ccccc2)nc1-c1ccc2c(c1)OCCO2)Nc1ccc(F)cc1` [Compound 54, 1-((3-(2,3-dihydrobenzo[b][1,4]dioxin-6-yl)-1-phenyl-1H-pyrazol-4-yl)methyl)-3-(4-fluorophenyl)urea], the EC50 at 3 days [1] was > 64 µM, the EC50 [2] was > 64 µM and the EC50 [3, 9] was > 64 µM. For the same compound, the EC50 [4, 10] was > 64 µM and the EC50 [5, 11] was > 64 µM.

For `CNC(=O)c1cc(Oc2ccc(NCc3cn(-c4ccccc4)nc3-c3ccc4c(c3)OCO4)cc2)ccn1` [Compound 60, 4-(4-(((3-(benzo[d] [1,3]dioxol-5-yl)-1-phenyl-1H-pyrazol-4-yl)methyl)amino)phenoxy)-N-methylpicolinamide], the EC50 at 3 days [1] was 60.7 µM, the EC50 [2] was > 64 µM and the EC50 [3, 9] was 32.5 µM. The EC50 [4, 10] was > 64 µM and the EC50 [5, 11] was 5.18 µM.

For `Fc1ccc(-n2cc(COCc3cn(-c4ccccc4)nc3-c3ccc4c(c3)OCCO4)nn2)cc1` [Compound 47, 4-(((3-(2,3-dihydrobenzo[b][1,4]dioxin-6-yl)-1-phenyl-1H-pyrazol-4-yl)methoxy)methyl)-1-(4-fluorophenyl)-1H-1,2,3-triazole], the EC50 at 3 days [1] was 51.5 µM, the EC50 [2] was 64 µM and the EC50 [3, 9] was > 64 µM. It also gave an EC50 [4, 10] of 55.9 µM and an EC50 [5, 11] of 5.56 µM.

In the case of `O=C(NCCN1CCOCC1)c1cn(-c2ccccc2)nc1-c1ccc2c(c1)OCCO2` [Compound 44, 3-(2,3-dihydrobenzo[b][1,4]dioxin-6-yl)-N-(2-morpholinoethyl)-1-phenyl-1H-pyrazole-4-carboxamide hydrochloride], the EC50 at 3 days [1] is reported as > 64 µM, the EC50 [2] is reported as 64 µM and the EC50 [3, 6] is reported as 9.51 µM. For the same compound, the EC50 ([3]; read-out: L. inf. (EC50), amastigotes in PMM, 5 days) was 8.3 µM, the EC50 [4, 7] was > 64 µM and the EC50 [5, 8] was 19 µM.

`c1ccc(Cc2cn(-c3ccccc3)nc2-c2ccc3c(c2)OCCO3)cc1` [Compound 49, 4-benzyl-3-(2,3-dihydrobenzo[b][1,4]dioxin-6-yl)-1-phenyl-1H-pyrazole] showed an EC50 at 3 days [1] of 59.5 µM, an EC50 [2] of 7.35 µM and an EC50 [3, 9] of 38.1 µM. For the same compound, the EC50 [4, 10] was 29.3 µM and the EC50 [5, 11] was 16.5 µM.
